Entries after “also recorded” stand apart in the source; their conditions may differ.
What was measured:
TOM20-V5-APEX2 = test: Fixed-cell APEX labeling with TOM20-V5-APEX2 (confocal colocalization, line scan); assay type: cell-based, Human
Description: HeLa cells were transiently transfected with the APEX2-POI construct using PEI when cells reached approximately 70% confluency, following the protocol provided by the production company of PEI. After transfection and protein expression, the cells were fixed with 4% PFA in 1×DPBS for 15 minutes at room temperature. Subsequently, the cells were washed three times with DPBS. For the APEX reaction, JFT probes (100-500 μM) and H2O2 (0.5-1 mM) were used in 0.1 M PHEMS buffer for the specified time points. The APEX2-mediated reaction was quenched using a quencher solution (a mixture of sodium ascorbate, trolox, and sodium azide, see PMID: 23371551), and the cells were washed three times with DPBS buffer. For immunofluorescence imaging, the cells were permeabilized with −20° C. methanol for 5 minutes, followed by the standard immunofluorescence staining protocol. The detection of JFT fluorescence and immunofluorescence was performed using the GFP channel (excitation at 488 nm), RFP channel (excitation at 561 nm), and Cy5 channel (excitation at 647 nm) of a confocal light microscope 428 (FV3000, Olympus, Japan). […]

[1] = Photophysical properties in buffer (absorption, fluorescence); assay type: physicochemical
Description: These photophysical properties render the JF probes suitable for detection in the RFP channel (excitation at 561 nm, fluorescence emission filter: 565-620 nm). […] The absorbance spectra largely shifted from 515 (pH 7.4) to 416 nm when the probe was incubated at pH 6.0. […] This property enables the detection of JF probes in the GFP channel; however, the fluorescence intensity was negligible compared to that of GFP or GFP variant proteins (mEosEM etc.).

organelle-targeted APEX2 = test: Fixed-cell FLEX staining of organelle-targeted APEX2-POIs; assay type: cell-based, Human; conditions: fixed cells, PHEMS buffer 100 mM pH 7.4
Description: HeLa cells were transiently transfected with the APEX2-POI construct using PEI when cells reached approximately 70% confluency, following the protocol provided by the production company of PEI. After transfection and protein expression, the cells were fixed with 4% PFA in 1×DPBS for 15 minutes at room temperature. Subsequently, the cells were washed three times with DPBS. For the APEX reaction, JFT probes (100-500 μM) and H2O2 (0.5-1 mM) were used in 0.1 M PHEMS buffer for the specified time points. […] The detection of JFT fluorescence and immunofluorescence was performed using the GFP channel (excitation at 488 nm), RFP channel (excitation at 561 nm), and Cy5 channel (excitation at 647 nm) of a confocal light microscope 428 (FV3000, Olympus, Japan).
It was assessed whether JFT1 could react with APEX2 targeting various organelles under fixed conditions. […] Furthermore, JFT1 effectively generated a fluorescence signal with the APEX2-tagged POIs (APEX2-POIs) within specific compartments, including the mitochondrial matrix (Matrix-V5-APEX2), nucleus (V5-APEX2-NLS), and ER lumen (SEC61B-V5-APEX2) under fixed-cell conditions. […] These findings validate the wide applicability of JFT1 for APEX2-mediated fluorescence signal amplification (FLEX) in various subcellular organelles. […]

Matrix-V5-APEX2 = test: Pre-embedding osmium treatment CLEM of JFT1-stained fixed Matrix-V5-APEX2 cells; assay type: cell-based; conditions: 500 μM JFT1, 1 mM H2O2, 5 min; 0.4% OsO4, dehydration, resin embedding, 100 nm ultrathin section
Description: To obtain the SEM-based CLEM images via pre-embedding osmium treatment procedure (FIG. 2C, lower), cells were fixed with 2.5% glutaraldehyde (Electron Microscopy Sciences, cat. No. 16200) and 2% paraformaldehyde (Electron Microscopy Sciences, cat. No. 19210) in 0.1 M cacodylate solution (pH 7.0) for 30 min at 4° C. After washing, 20 mM glycine solution was used for quenching unreacted aldehyde. Next, JFT1 probe labeling with 500 μM JFT1 and 0.5-1 mM H2O2, was conducted for 5 min. Next, JFT1-labeled cells were post-fixed with 0.4% osmium tetroxide (OsO4) containing 1.5% potassium ferrocyanide in distilled water for 30 min at 4° C. and en bloc in 1% uranyl acetate (EMS, USA, cat. No. 22400) overnight and dehydrated with a graded ethanol series. The samples were then embedded with an EMBed-812 embedding kit (Electron Microscopy Sciences, USA, cat. No. 14120) and polymerized in an oven at 60° C. […]
Given the significance of osmium staining in EM sample preparation, the preservation of JF and JFT1 fluorescence after OsO4 treatment was tested. Remarkably, both JF- and JFT1-stained APEX2-expressing regions retained 70-80% of the original osmium-resistant fluorescence intensity even after osmium treatment (0.1% OsO4), facilitating their detection using confocal microscopy (FIG. 2D). […]

OCCn1cc(C[n+]2c(/C=C/c3ccc(O)cc3)sc3ccccc32)nn1 [JFT1, (E)-3-((1-(2-hydroxyethyl)-1H-1,2,3-triazol-4-yl)methyl)-2-(4-hydroxystyryl)benzo[d]thiazol-3-ium]
labeling pattern by line scan analysis vs anti-V5 stain (TOM20-V5-APEX2; fixed cells, TOM20-V5-APEX2, RFP signal): most optimal and restricted labeling pattern; also recorded: most well-matched pattern
Pearson correlation coefficient (r) between probe-labeling region (RFP signal) and enzyme-expressed region (anti-V5 stain) (TOM20-V5-APEX2; fixed sample, TOM20-V5-APEX2): 0.91
green fluorescence Imax ([1]; acidic pH (pH<7), excitation 405 or 450 nm): 520 nm
absorbance spectra maximum ([1]; pH 6.0): 416 nm
absorbance spectra maximum ([1]; pH 7.4): 515 nm
fluorescence signal in GFP channel (organelle-targeted APEX2): weak green fluorescence signal
fluorescence signal in RFP channel (organelle-targeted APEX2): strong red fluorescence signal
fluorescence signal after pre-embedding steps (Matrix-V5-APEX2): well-preserved
